Measured values published in patent US20210121460A1, “A TRIPLE PHARMACEUTICAL COMBINATION COMPRISING DABRAFENIB, TRAMETINIB AND AN ERK INHIBITOR” (NOVARTIS AG, priority 2018, published 2021).

test system: BRAF V600E CRC xenograft model HT29; test: In vivo antitumor efficacy, HT29 BRAF V600E CRC xenograft model (Example 4, 14 day); details: HT29 in female nude mice; compound A 75 mg/kg, dabrafenib 30 mg/kg, trametinib 0.3 mg/kg QD PO, cetuximab 20 mg/kg 2QW IP
Procedure: HT29 xenografts was established by direct subcutaneous (sc) implantation of 2×10^6 cells into the right axillary region of 6-7 week old female nude mice.
Animals were weighed at dosing day(s) and dose was body weight adjusted, dosing volume was 10 ml/kg. Tumor dimensions and body weights were collected at the time of randomization and twice weekly thereafter for the study duration.
Percent treatment/control (T/C) values were calculated using the following formulae:
% Regression=100×ΔT/T0 if ΔT<0;
where: T=mean tumor volume of the drug-treated group on the final day of the study; ΔT=mean tumor volume of the drug-treated group on the final day of the study—mean tumor volume of the drug-treated group on initial day of dosing; T0=mean tumor volume of the drug-treated group on the day of cohort; C=mean tumor volume of the control group on the final day of the study; and ΔC=mean tumor volume of the control group on the final day of the study—mean tumor volume of the control group on initial day of dosing.
All data were expressed as mean±standard error of the mean (SEM). Delta tumor volume and percent body weight changes were used for statistical analysis. Between group comparisons were carried out using the One way ANOVA followed by a post hoc Tukey test. For all statistical evaluations, the level of significance was set at p<0.05. Significance compared to the untreated control group is reported unless otherwise stated.

Compound	T/C % or Reg % at day 39 post implantation [%]
CNC[C@@H](NC(=O)c1ccc(-c2nc([C@H]3CC[C@H](O)[C@@H](F)C3)cnc2N)cc1F)c1cc(F)cc(Br)c1 [compound A, 4-(3-amino-6-((1S,3S,4S)-3-fluoro-4-hydroxycyclohexyl)pyrazin-2-yl)-N—((S)-1-(3-bromo-5-fluorophenyl)-2-(methylamino)ethyl)-2-fluorobenzamide]	53.8
CC(C)(C)c1nc(-c2cccc(NS(=O)(=O)c3c(F)cccc3F)c2F)c(-c2ccnc(N)n2)s1 [dabrafenib, N-(3-(5-(2-aminopyrimidin-4-yl)-2-(tert-butyl)thiazol-4-yl)-2-fluorophenyl)-2,6-difluorobenzenesulfonamide]	58.8
CC(=O)Nc1cccc(-n2c(=O)n(C3CC3)c(=O)c3c(Nc4ccc(I)cc4F)n(C)c(=O)c(C)c32)c1 [trametinib, N-(3-(3-cyclopropyl-5-((2-fluoro-4-iodophenyl)amino)-6,8-dimethyl-2,4,7-trioxo-3,4,6,7-tetrahydropyrido[4,3-d]pyrimidin-1(2H)-yl)phenyl)acetamide]	47.7
